Measured values from the supplement of paper PMC10307832.

Key:
Test in all cases: relative viability (nuclei count vs DMSO), 5 days (fraction); higher = more cells survive
AZ505 + Vorinostat = compound: C1CCC(CC1)N(CCNCCC2=C3C(=C(C=C2)O)NC(=O)CO3)C(=O)CCNCCC4=CC(=C(C=C4)Cl)Cl [AZ505] + O=C(CCCCCCC(=O)Nc1ccccc1)NO [Vorinostat] (partner 1 µM)
Procedure, shortened: (§1)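 Medians of duplicate plates are given as relative viability. That measure is the nuclei count in treated wells divided by the count in vehicle wells. Counts were taken on 4× images of lung cancer cell lines in 1536-well plates, 5 days after pin-tool dosing the day after seeding with one drug alone or a fixed anchor-drug dose plus five library-drug doses (not always all listed) in √10 steps.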

Dactolisib + Dasatinib = compound: Cn1c(=O)n(-c2ccc(C(C)(C)C#N)cc2)c2c3cc(-c4cnc5ccccc5c4)ccc3ncc21 [Dactolisib] + Cc1nc(Nc2ncc(C(=O)Nc3c(C)cccc3Cl)s2)cc(N2CCN(CCO)CC2)n1 [Dasatinib] (partner 0.075 µM)
Procedure, shortened: as §1

Dactolisib + Decitabine = compound: Cn1c(=O)n(-c2ccc(C(C)(C)C#N)cc2)c2c3cc(-c4cnc5ccccc5c4)ccc3ncc21 [Dactolisib] + Nc1ncn([C@H]2C[C@H](O)[C@@H](CO)O2)c(=O)n1 [Decitabine] (partner 2 µM)
Procedure, shortened: as §1

Dactolisib + Vorinostat = compound: Cn1c(=O)n(-c2ccc(C(C)(C)C#N)cc2)c2c3cc(-c4cnc5ccccc5c4)ccc3ncc21 [Dactolisib] + O=C(CCCCCCC(=O)Nc1ccccc1)NO [Vorinostat] (partner 1 µM)
Procedure, shortened: as §1

Row | Cell Line | relative viability (AZ505 + Vorinostat; first compound 0.08 µM) | relative viability (AZ505 + Vorinostat; first compound 0.253 µM) | relative viability (AZ505 + Vorinostat; first compound 0.8 µM) | relative viability (AZ505 + Vorinostat; first compound 2.53 µM) | relative viability (AZ505 + Vorinostat; first compound 8 µM) | relative viability (Dactolisib + Dasatinib; first compound 0.002 µM) | relative viability (Dactolisib + Dasatinib; first compound 0.006325 µM) | relative viability (Dactolisib + Dasatinib; first compound 0.02 µM) | relative viability (Dactolisib + Dasatinib; first compound 0.06325 µM) | relative viability (Dactolisib + Dasatinib; first compound 0.2 µM) | relative viability (Dactolisib + Decitabine; first compound 0.002 µM) | relative viability (Dactolisib + Decitabine; first compound 0.006325 µM) | relative viability (Dactolisib + Decitabine; first compound 0.02 µM) | relative viability (Dactolisib + Decitabine; first compound 0.06325 µM) | relative viability (Dactolisib + Decitabine; first compound 0.2 µM) | relative viability (Dactolisib + Vorinostat; first compound 0.002 µM) | relative viability (Dactolisib + Vorinostat; first compound 0.006325 µM) | relative viability (Dactolisib + Vorinostat; first compound 0.02 µM) | relative viability (Dactolisib + Vorinostat; first compound 0.06325 µM) | relative viability (Dactolisib + Vorinostat; first compound 0.2 µM)
1 | NCI-H2126 | 0.724 | 0.682 | 0.751 | 0.696 | 0.757 | 0.599 | 0.589 | 0.504 | 0.385 | 0.279 | 0.645 | 0.663 | 0.55 | 0.462 | 0.416 | 0.856 | 0.763 | 0.594 | 0.427 | 0.426
2 | NCI-H3122 | 0.807 | 1.02 | 1.03 | 0.992 | 1.01 | 0.702 | 0.818 | 0.752 | 0.675 | 0.225 | 0.376 | 0.369 | 0.415 | 0.284 | 0.304 | 1.03 | 0.854 | 1.09 | 1.04 | 0.671
3 | NCI-H1975 | 0.632 | 0.61 | 0.625 | 0.592 | 0.666 | 0.35 | 0.305 | 0.246 | 0.167 | 0.135 | 0.387 | 0.349 | 0.394 | 0.286 | 0.25 | 0.788 | 0.622 | 0.575 | 0.429 | 0.266
4 | NCI-H1944 | 0.563 | 0.551 | 0.641 | 0.514 | 0.55 | 0.22 | 0.2 | 0.212 | 0.165 | 0.148 | 0.502 | 0.416 | 0.45 | 0.272 | 0.262 | 0.576 | 0.56 | 0.492 | 0.29 | 0.223
5 | LU99A | 0.545 | 0.533 | 0.506 | – | 0.504 | 0.621 | 0.449 | 0.403 | 0.225 | 0.205 | 0.906 | 0.723 | 0.602 | 0.373 | 0.261 | 0.417 | 0.368 | 0.407 | 0.246 | 0.162
6 | NCI-H2347 | 0.39 | 0.417 | 0.474 | 0.464 | 0.352 | 0.284 | 0.306 | 0.313 | 0.291 | 0.253 | 0.682 | 0.581 | 0.62 | 0.541 | 0.473 | 0.557 | 0.55 | 0.585 | 0.364 | 0.378
7 | NCI-H2009 | 0.635 | 0.678 | 0.652 | 0.626 | 0.678 | 0.3 | 0.283 | 0.291 | 0.194 | 0.154 | 0.381 | 0.373 | 0.362 | 0.34 | 0.268 | 0.746 | 0.719 | 0.704 | 0.568 | 0.202
8 | HCC-15 | 0.844 | 0.817 | 0.803 | 0.854 | 0.824 | 0.609 | 0.559 | 0.499 | 0.319 | 0.229 | 0.626 | 0.599 | 0.617 | 0.33 | 0.208 | 0.961 | 0.786 | 0.85 | 0.498 | 0.373
9 | HCC-44 | 1.09 | 1.09 | 1.06 | 1.23 | 1.14 | – | – | – | – | – | 1.04 | 0.976 | 0.937 | 0.944 | 0.878 | 1.12 | 1.14 | 1.21 | 1.14 | 0.885
10 | COR-L23 | 0.415 | 0.312 | 0.364 | 0.407 | 0.377 | 0.634 | 0.471 | 0.543 | 0.169 | 0.144 | 0.605 | 0.445 | 0.32 | 0.23 | 0.182 | 0.367 | 0.363 | 0.277 | 0.157 | 0.161
11 | HCC-78 | – | – | 0.444 | 0.597 | 0.508 | 0.427 | 0.409 | 0.336 | 0.399 | 0.224 | 0.834 | 0.854 | 0.619 | 0.612 | 0.455 | 0.33 | 0.431 | 0.415 | 0.367 | 0.303
12 | NCI-H727 | 1.11 | 1.07 | 1.2 | 1.11 | 1.3 | 0.384 | 0.445 | 0.461 | 0.3 | 0.257 | – | 0.986 | 1.01 | 0.465 | 0.496 | – | 1.31 | 1.16 | 0.981 | 1.3
13 | NCI-H2087 | 0.596 | 0.903 | 0.592 | 0.691 | 0.913 | 0.782 | 0.771 | 0.86 | 0.359 | 0.272 | 0.314 | 0.265 | 0.249 | 0.205 | 0.133 | 0.731 | 0.458 | 0.501 | 0.176 | 0.339
14 | BEN | 0.494 | 0.603 | 0.54 | 0.592 | 0.591 | 0.333 | 0.288 | 0.307 | 0.329 | 0.262 | 0.802 | 0.692 | 0.63 | 0.518 | 0.41 | 0.555 | 0.577 | 0.562 | 0.478 | 0.383
15 | NCI-H2228 | 0.409 | 0.589 | 0.543 | 0.643 | 0.588 | 0.629 | 0.441 | 0.339 | 0.162 | 0.141 | – | – | – | – | – | 0.652 | 0.682 | 0.429 | 0.327 | 0.164
16 | NCI-H1563 | – | – | – | – | – | 0.498 | 0.466 | 0.47 | 0.474 | 0.458 | – | – | – | – | – | – | – | – | – | –
17 | A549 | – | – | – | – | – | – | – | – | – | – | 0.34 | 0.292 | 0.248 | 0.204 | 0.12 | – | – | – | – | –
18 | NCI-H1623 | – | – | – | – | – | 0.518 | 0.585 | 0.528 | 0.412 | 0.379 | – | – | – | – | – | – | – | – | – | –
19 | IA-LM | 0.878 | – | 0.933 | – | 1.17 | – | – | – | – | – | – | – | – | – | – | 1 | 0.903 | 0.817 | 0.426 | 0.267
20 | CAL-12T | 0.577 | 0.971 | 0.692 | 0.849 | 1.01 | 0.456 | 0.35 | 0.252 | 0.172 | 0.108 | – | – | – | – | – | 0.798 | 0.913 | 0.722 | 0.209 | 0.199
